Results from patent publication US9302986B2, “Substituted 3-haloallylamine inhibitors of ASSAO and uses thereof” (Boehringer Ingelheim International GmbH, priority 2012, dated 2016).
Where a name gives a salt, the structure may show the parent alone.

Experiments:
recombinant human VAP-1 = recombinant human VAP-1 (Homo sapiens, UniProt Q16853); assay: Inhibition of human recombinant SSAO/VAP-1 expressed in HMEC cells (cell lysate)
Protocol: A clone stably expressing human SSAO/VAP-1 was selected and was stored in liquid nitrogen until cell lysate was required for colorimetric assay. Briefly, HMEC cell expressing human SSAO/VAP-1 were grown in several 10 cm petri dishes, once the cells reached 100% confluency, cells were harvested and homogenates were prepared. Cells were washed twice with 5 mL of chilled HES buffer (20 mM HEPES, 1 mM EDTA, 250 mM sucrose, pH 7.4). HES buffer containing 1× protease inhibitor (Sigma Aldrich) and added and cells were incubated on ice for 3 min. Buffer was removed and cells were scraped and transferred to a centrifuge tube. Cell lysates were prepared by passing through 23 G needle for, 10 times and followed by 27 G needle for 10 times. Alternatively the cell lysates were prepared by using IKA Ultra-Turrax T 10 homogenizer for 3 min for every 10 mL of cell suspensions. Cells were then spun for 5 min at 300×g. The clear supernatant was transferred to new centrifuge tube and stored at −80° C. until colorimetric assay was performed. Prior to the assay, 0.5 mM pargyline was added in order to inhibit any residue MAO activities. […] Briefly, 50 μL of cell lysate was incubated with test compounds for 30 min at 37° C.

[1] = molecular target: Endogenous SSAO/VAP-1 in rat fat (Rattus norvegicus (Rat), UniProt O08590); assay: Inhibition of SSAO/VAP-1 in rat fat homogenate; format: biochemical; settings: benzylamine 30 μM
Protocol: Abdominal fat from BALB/c mice, Wistar or Sprague Dawley rats, which are tissues enriched with SSAO/VAP-1-were surgically removed. For every gram of animal abdominal fat tissue, 1 mL of 0.1 M NaPO4 buffer (pH 7.4) was added. Tissues were homogenized using IKA Ultra-Turrax T 10 homogenizer for 3 min, homogenate was centrifuged for 15 min at 3000×g. The middle layer (clear supernatant) was removed without disturbing the top layer (high fat content) or the debris on the bottom of the tube. SSAO/VAP-1 activity was determined by checking the fluorescent signal. Km/Vmax values were determined and the fat homogenate was aliquoted and stored at −80 C until assays were performed.

Recombinant human DAO = Recombinant human DAO (Homo sapiens (Human), UniProt P19801); assay: Inhibition of human recombinant diamine oxidase; format: biochemical; settings: putrescine 200 μM
Recombinant human MAO-B = Recombinant human MAO-B (Homo sapiens (Human), UniProt P27338); assay: Inhibition of human recombinant MAO-B; format: biochemical; settings: benzylamine 100 μM
Protocol: This vector containing human SSAO/VAP-1 residues was transfected into CHO-K1 glycosylation mutant cell line, Lec 8. A clone stably expressing human SSAO/VAP-1 was isolated and cultured in large scale. Active human SSAO/VAP-1 was purified and recovered using immunoaffinity chromatography. This was used as source for SSAO/VAP-1 activity. A high-throughput colorimetric assay was developed using either 96 or 384 well format. Briefly, in a standard 96 well plate assay 50 μL of purified human SSAO/VAP-1 (0.25 μg/mL) in 0.1 M NaPO4 buffer (pH 7.4) was added into each well.
The specificity of invention compounds was tested by determining their ability to inhibit MAO-B activities in vitro. Recombinant human MAO-B (0.06 mg/mL; Sigma Aldrich) was used as source of MAO-B enzyme activities.

[2] = system: LPS-induced lung inflammation; assay: Acute lung inflammation in the LPS driven model; settings: 2 mg/kg
Protocol: The incision was closed with wound clips and the mice returned to cages.
Six hours after LPS/saline injection, the mice were anesthetized, the wound clips removed, the trachea was cannulated with a 23G blunt needle, and the lungs lavaged eight times with 0.5 ml heparinized saline. The lavage was pooled, gently inverted, and a sample retained for white blood cell (WBC) differential analysis. The remainder of the lavage was centrifuged, the supernatants used for cytokine analysis.

[3] = system: LPS-induced neuroinflammation; assay: Parkinson's disease Model A: systemic exposure to LPS; format: in vivo, Long Evans rats; settings: 2 mg/kg ip
Protocol: Parkinson's disease is a pathological, age-related neurodegenerative disorder, characterized by a specific and progressive degeneration of dopaminergic neurons.
Long Evans rats were dosed intraperitoneal (ip) with 2 mg/kg of Compound 9 or vehicle 1 h before the first (time 0 h) and the third (time 24 h) injections of LPS. At time 0 the animals received a dose of 10 mg/kg of LPS. At time 6 and 24 h the animals were dosed with 3 mg/kg of LPS solution, ip. 30 h after the first LPS injection, the animals received ip injections of lethabarb and were transcardially perfused with 400 ml. PBS at 4° C. followed by 400 ml of 4% paraformaldehyde (PFA). The brains were post fixed overnight in 4% PFA at 4° C. followed by 20% sucrose solution for 24 h. 30 μm sections were collected and stained for immunofluorescence, immunohistochemistry and western blot analysis.

Sequence of Recombinant human MAO-B (P27338 whole entry): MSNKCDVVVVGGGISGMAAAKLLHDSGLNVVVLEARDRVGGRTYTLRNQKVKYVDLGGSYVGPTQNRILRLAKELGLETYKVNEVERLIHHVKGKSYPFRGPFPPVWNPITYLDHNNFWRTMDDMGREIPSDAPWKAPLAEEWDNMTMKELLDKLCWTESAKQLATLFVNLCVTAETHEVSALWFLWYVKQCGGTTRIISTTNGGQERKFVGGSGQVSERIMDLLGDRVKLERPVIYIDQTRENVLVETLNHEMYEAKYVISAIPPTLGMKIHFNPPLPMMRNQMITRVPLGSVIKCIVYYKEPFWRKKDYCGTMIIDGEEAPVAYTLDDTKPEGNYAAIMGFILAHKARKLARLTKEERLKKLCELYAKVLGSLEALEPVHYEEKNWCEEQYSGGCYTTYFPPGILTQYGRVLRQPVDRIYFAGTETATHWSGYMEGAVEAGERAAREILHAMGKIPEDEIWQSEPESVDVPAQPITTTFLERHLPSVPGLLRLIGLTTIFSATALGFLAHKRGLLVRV
Sequence of Endogenous SSAO/VAP-1 in rat fat (O08590 whole entry): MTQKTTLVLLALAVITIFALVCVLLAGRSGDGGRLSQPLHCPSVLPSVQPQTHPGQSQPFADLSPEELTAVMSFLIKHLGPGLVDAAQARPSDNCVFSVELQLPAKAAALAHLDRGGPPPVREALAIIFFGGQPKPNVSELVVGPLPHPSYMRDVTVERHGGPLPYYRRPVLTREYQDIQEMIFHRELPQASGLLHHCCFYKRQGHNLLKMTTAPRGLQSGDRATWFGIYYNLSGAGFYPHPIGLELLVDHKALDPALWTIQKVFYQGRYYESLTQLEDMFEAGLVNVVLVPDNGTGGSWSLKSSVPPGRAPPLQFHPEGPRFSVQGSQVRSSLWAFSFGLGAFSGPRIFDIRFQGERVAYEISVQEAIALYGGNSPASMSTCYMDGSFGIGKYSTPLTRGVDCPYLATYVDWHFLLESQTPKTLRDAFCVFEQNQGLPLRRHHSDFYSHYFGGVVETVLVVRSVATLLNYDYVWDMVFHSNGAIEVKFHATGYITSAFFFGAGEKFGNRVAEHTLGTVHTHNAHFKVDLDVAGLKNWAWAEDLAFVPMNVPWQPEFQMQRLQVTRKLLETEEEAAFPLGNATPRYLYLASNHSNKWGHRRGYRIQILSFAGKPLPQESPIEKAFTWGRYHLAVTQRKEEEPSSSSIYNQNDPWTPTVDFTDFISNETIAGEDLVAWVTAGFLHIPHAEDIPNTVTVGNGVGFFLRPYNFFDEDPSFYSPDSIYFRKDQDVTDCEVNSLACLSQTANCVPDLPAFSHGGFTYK
Sequence of Recombinant human DAO (P19801 20-751): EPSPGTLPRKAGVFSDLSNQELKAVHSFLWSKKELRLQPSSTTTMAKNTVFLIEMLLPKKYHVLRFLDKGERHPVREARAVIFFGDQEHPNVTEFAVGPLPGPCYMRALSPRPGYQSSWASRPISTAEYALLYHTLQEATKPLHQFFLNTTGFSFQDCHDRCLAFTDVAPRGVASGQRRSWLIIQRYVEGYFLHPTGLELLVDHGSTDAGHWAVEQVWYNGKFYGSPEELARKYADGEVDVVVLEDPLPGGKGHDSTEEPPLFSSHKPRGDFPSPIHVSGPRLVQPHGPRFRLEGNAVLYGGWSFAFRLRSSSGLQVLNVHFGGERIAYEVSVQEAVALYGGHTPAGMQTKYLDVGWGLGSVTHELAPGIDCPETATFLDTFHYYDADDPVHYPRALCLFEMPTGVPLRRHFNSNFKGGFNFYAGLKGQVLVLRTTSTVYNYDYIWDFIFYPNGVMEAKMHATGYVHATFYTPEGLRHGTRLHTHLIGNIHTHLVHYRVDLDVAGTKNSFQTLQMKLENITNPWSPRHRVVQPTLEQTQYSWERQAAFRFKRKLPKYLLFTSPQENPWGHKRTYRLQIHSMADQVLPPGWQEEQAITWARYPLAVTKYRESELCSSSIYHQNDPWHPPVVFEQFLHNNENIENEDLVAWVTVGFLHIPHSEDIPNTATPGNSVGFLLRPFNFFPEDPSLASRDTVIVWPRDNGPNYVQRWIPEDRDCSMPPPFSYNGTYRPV

## NC/C(=C/F)COc1ccc(C(N)=O)cc1 [Compound 2, (Z)-4-(2-(Aminomethyl)-3-fluoroallyloxy)benzamide]
Recombinant human VAP-1
  IC50: < 100 nM
[1]
  IC50: < 100 nM
Recombinant human DAO
  IC50: < 100 nM
Recombinant human MAO-B
  IC50: > 1000 nM

## NC/C(=C\F)COc1ccc(C(N)=O)cc1 [Compound 3, (E)-4-(2-(Aminomethyl)-3-fluoroallyloxy)benzamide]
Recombinant human VAP-1
  IC50: < 100 nM
[1]
  IC50: < 100 nM
Recombinant human DAO
  IC50: > 1000 nM
Recombinant human MAO-B
  IC50: > 10000 nM

## CN(C)C(=O)c1ccc(OC/C(=C\F)CN)c(F)c1 [Compound 4, (Z)-4-(2-(Aminomethyl)-3-fluoroallyloxy)-3-fluoro-N,N-dimethylbenzamide]
[1]
  IC50: < 100 nM
Recombinant human DAO
  IC50: < 1000 nM
Recombinant human MAO-B
  IC50: > 100 nM

## CN(C)C(=O)c1ccc(OC/C(=C\F)CN)c(Cl)c1 [Compound 6, (Z)-4-(2-(Aminomethyl)-3-fluoroallyloxy)-3-chloro-N,N-dimethylbenzamide]
Recombinant human DAO
  IC50: < 1000 nM
Recombinant human MAO-B
  IC50: > 1000 nM

## COc1cc(C(=O)N(C)C)ccc1OCC(=CF)CN [Compound 7, 4-(2-(Aminomethyl)-3-fluoroallyloxy)-3-methoxy-N,N-dimethylbenzamide]
Recombinant human VAP-1
  IC50: < 100 nM
Recombinant human DAO
  IC50: < 1000 nM
Recombinant human MAO-B
  IC50: > 10000 nM

## CN(C)C(=O)c1ccc(SCC(=CF)CN)cc1 [Compound 8, 4-(2-(Aminomethyl)-3-fluoroallylthio)-N,N-dimethylbenzamide]
Recombinant human VAP-1
  IC50: < 100 nM
Recombinant human MAO-B
  IC50: > 1000 nM

## NC/C(=C/F)COc1ccc(S(N)(=O)=O)cc1 [Compound 9, (Z)-4-(2-(Aminomethyl)-3-fluoroallyloxy)benzenesulfonamide]
Recombinant human VAP-1
  IC50: < 100 nM
[2]; lavage supernatant
  IL-6 levels: diminution
  TNF-α levels: diminution
[2]; lung lavage six hours after LPS
  neutrophil infiltration: significant reduction
[1]
  IC50: < 100 nM
[3]; 30 h after first LPS injection
  neutrophil infiltration in the dorso-lateral striatum and hippocampus: reduced
[3]; dendrites length, surface and volume
  microglial cell recruitment and activation in the substantia nigra and dorso-lateral striatum: reduction
Recombinant human DAO
  IC50: < 1000 nM
Recombinant human MAO-B
  IC50: > 10000 nM

## CN(C)S(=O)(=O)c1ccc(OC/C(=C\F)CN)cc1 [Compound 10, (Z)-4-(2-(Aminomethyl)-3-fluoroallyloxy)-N,N-dimethylbenzenesulfonamide]
[1]
  IC50: < 100 nM
Recombinant human DAO
  IC50: > 1000 nM
Recombinant human MAO-B
  IC50: > 10000 nM

## NC/C(=C\F)COc1ccc(S(N)(=O)=O)cc1 [Compound 11, (E)-4-(2-(Aminomethyl)-3-fluoroallyloxy)benzenesulfonamide]
Recombinant human VAP-1
  IC50: < 100 nM
[1]
  IC50: < 100 nM
Recombinant human DAO
  IC50: > 10000 nM
Recombinant human MAO-B
  IC50: > 10000 nM

## CN(C)C(=O)c1ccc(OC/C(=C/F)CN)cc1 [Compound 13, hydrochloride]
Recombinant human VAP-1
  IC50: < 100 nM
[1]
  IC50: < 100 nM
Recombinant human DAO
  IC50: > 1000 nM
Recombinant human MAO-B
  IC50: > 100 nM

## CN(C)S(=O)(=O)c1ccc(OC/C(=C/F)CN)cc1 [Compound 14, (E)-4-(2-(Aminomethyl)-3-fluoroallyloxy)-N,N-dimethylbenzenesulfonamide]
[1]
  IC50: < 100 nM
Recombinant human DAO
  IC50: > 10000 nM
Recombinant human MAO-B
  IC50: > 10000 nM

## CN(C)S(=O)(=O)c1cccc(OC/C(=C\F)CN)c1 [Compound 15, (Z)-3-(2-(Aminomethyl)-3-fluoroallyloxy)-N,N-dimethylbenzenesulfonamide]
[1]
  IC50: < 100 nM
Recombinant human MAO-B
  IC50: > 100000 nM

## CN(C)C(=O)c1ccc(OC/C(=C\F)CN)cc1 [Compound 18, (Z)-4-(2-(Aminomethyl)-3-fluoroallyloxy)-N,N-dimethylbenzamide]
Recombinant human VAP-1
  IC50: < 100 nM
[1]
  IC50: < 100 nM
Recombinant human DAO
  IC50: < 100 nM
Recombinant human MAO-B
  IC50: > 100 nM

## CN(C)C(=O)c1ccc(OC/C(=C\F)CN)c(Br)c1 [Compound 20, (Z)-4-(2-(Aminomethyl)-3-fluoroallyloxy)-3-bromo-N,N-dimethylbenzamide]
Recombinant human DAO
  IC50: < 1000 nM
Recombinant human MAO-B
  IC50: > 1000 nM

## CCN(CC)C(=O)c1ccc(OC/C(=C/F)CN)cc1 [Compound 24, (E)-4-(2-(Aminomethyl)-3-fluoroallyloxy)-N,N-diethylbenzamide]
[1]
  IC50: < 100 nM
Recombinant human DAO
  IC50: > 10000 nM
Recombinant human MAO-B
  IC50: > 1000 nM

## CNC(=O)c1ccc(OC/C(=C/F)CN)cc1 [Compound 25, (E)-4-(2-(Aminomethyl)-3-fluoroallyloxy)-N-methylbenzamide]
Recombinant human VAP-1
  IC50: < 100 nM
[1]
  IC50: < 100 nM
Recombinant human DAO
  IC50: < 1000 nM
Recombinant human MAO-B
  IC50: > 1000 nM

## Cc1cc(OC/C(=C\F)CN)ccc1C(=O)N(C)C [Compound 26, (Z)-4-(2-(Aminomethyl)-3-fluoroallyloxy)-N,N,2-trimethylbenzamide]
Recombinant human VAP-1
  IC50: < 100 nM
Recombinant human DAO
  IC50: < 1000 nM
Recombinant human MAO-B
  IC50: > 1000 nM

## CNS(=O)(=O)c1ccc(OC/C(=C/F)CN)cc1 [Compound 28, (E)-4-(2-(Aminomethyl)-3-fluoroallyloxy)-N-methylbenzenesulfonamide]
[1]
  IC50: < 100 nM
Recombinant human DAO
  IC50: > 10000 nM
Recombinant human MAO-B
  IC50: > 10000 nM

## CNS(=O)(=O)c1ccc(OC/C(=C\F)CN)cc1 [Compound 29, (Z)-4-(2-(Aminomethyl)-3-fluoroallyloxy)-N-methylbenzenesulfonamide]
[1]
  IC50: < 100 nM
Recombinant human DAO
  IC50: > 1000 nM
Recombinant human MAO-B
  IC50: > 10000 nM

## CCNS(=O)(=O)c1ccc(OC/C(=C/F)CN)cc1 [Compound 30, (E)-4-(2-(Aminomethyl)-3-fluoroallyloxy)-N-ethylbenzenesulfonamide]
[1]
  IC50: < 100 nM
Recombinant human DAO
  IC50: > 10000 nM
Recombinant human MAO-B
  IC50: > 10000 nM

## CCNS(=O)(=O)c1ccc(OC/C(=C\F)CN)cc1 [Compound 31, (Z)-4-(2-(Aminomethyl)-3-fluoroallyloxy)-N-ethylbenzenesulfonamide]
[1]
  IC50: < 100 nM
Recombinant human DAO
  IC50: < 1000 nM
Recombinant human MAO-B
  IC50: > 1000 nM

## CC(C)NS(=O)(=O)c1ccc(OC/C(=C/F)CN)cc1 [Compound 32, (E)-4-(2-(Aminomethyl)-3-fluoroallyloxy)-N-isopropylbenzenesulfonamide]
[1]
  IC50: < 100 nM
Recombinant human DAO
  IC50: > 10000 nM
Recombinant human MAO-B
  IC50: > 10000 nM

## CC(C)NS(=O)(=O)c1ccc(OC/C(=C\F)CN)cc1 [Compound 33, (Z)-4-(2-(Aminomethyl)-3-fluoroallyloxy)-N-isopropylbenzenesulfonamide]
[1]
  IC50: < 100 nM
Recombinant human DAO
  IC50: < 1000 nM
Recombinant human MAO-B
  IC50: > 10000 nM

## NC/C(=C/F)CCc1ccc(F)cc1 [Mofegiline, reference compound]
[1]
  IC50: 6 nM
